We go through 44 compounds from ChEMBL document CHEMBL1152388, “Identification of substituted pyrazolo[1,5-a]quinazolin-5(4H)-one as potent poly(ADP-ribose)polymerase-1 (PARP-1) inhibitors” (Bioorg Med Chem Lett, 2009).

The first assay has as its system HeLa. Briefly: Inhibition of PAR polymer formation in H2O2-stimulated human HeLa cells. The assay is classed as functional, cell-based.
On to `CN1CCCN(C(=O)c2cc3[nH]c(=O)c4ccccc4n3n2)CC1`, for which a half-maximal response (EC50) required 3900 nM.

The target in another assay is Poly [ADP-ribose] polymerase 1 (Homo sapiens, UniProt P09874). Briefly: Inhibition of PARP1 by scintillation proximity assay.
Chain of Poly [ADP-ribose] polymerase 1 (P09874 whole entry): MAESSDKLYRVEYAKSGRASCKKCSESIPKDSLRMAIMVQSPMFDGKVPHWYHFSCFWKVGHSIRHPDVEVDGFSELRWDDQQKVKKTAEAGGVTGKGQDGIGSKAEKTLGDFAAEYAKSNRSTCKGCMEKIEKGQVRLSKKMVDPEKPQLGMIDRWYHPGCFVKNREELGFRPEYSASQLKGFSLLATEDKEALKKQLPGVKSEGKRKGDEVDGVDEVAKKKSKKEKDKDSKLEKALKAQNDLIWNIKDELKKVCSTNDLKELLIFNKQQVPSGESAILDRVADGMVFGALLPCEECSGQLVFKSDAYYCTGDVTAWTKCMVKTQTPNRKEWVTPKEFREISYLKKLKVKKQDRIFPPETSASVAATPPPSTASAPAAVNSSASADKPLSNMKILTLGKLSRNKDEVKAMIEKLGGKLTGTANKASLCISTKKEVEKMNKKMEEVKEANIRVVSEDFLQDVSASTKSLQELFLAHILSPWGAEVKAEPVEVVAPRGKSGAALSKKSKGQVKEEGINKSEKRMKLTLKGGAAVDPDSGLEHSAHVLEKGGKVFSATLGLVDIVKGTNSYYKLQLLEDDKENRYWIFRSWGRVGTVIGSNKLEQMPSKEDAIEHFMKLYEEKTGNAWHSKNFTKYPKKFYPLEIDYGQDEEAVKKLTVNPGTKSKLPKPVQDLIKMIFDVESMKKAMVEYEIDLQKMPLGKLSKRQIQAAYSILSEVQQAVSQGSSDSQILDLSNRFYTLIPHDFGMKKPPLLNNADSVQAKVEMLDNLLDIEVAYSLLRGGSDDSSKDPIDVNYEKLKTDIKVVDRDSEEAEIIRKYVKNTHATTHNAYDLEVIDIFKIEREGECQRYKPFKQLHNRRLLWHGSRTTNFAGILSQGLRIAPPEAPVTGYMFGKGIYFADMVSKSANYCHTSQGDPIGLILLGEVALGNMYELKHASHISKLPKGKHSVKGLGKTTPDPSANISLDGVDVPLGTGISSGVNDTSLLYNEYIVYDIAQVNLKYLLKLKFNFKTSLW
Compound `CC(C)Cc1cc2[nH]c(=O)c3ccccc3n2n1` had a half-inhibitory concentration (IC50) of 400 nM.
`O=c1[nH]c2cc(-c3ccc(OC(F)(F)F)cc3)nn2c2ccccc12` yielded an IC50 above 1000 nM.
The compound `CN1CCCN(C(=O)c2cnn3c2[nH]c(=O)c2ccccc23)CC1` gave an IC50 above 1000 nM.
Still for that read-out and setting: under `O=C(c1cccc(-c2cc3[nH]c(=O)c4ccccc4n3n2)c1)N1CCN2CCC[C@H]2C1` stands 500 nM.
Consider `O=c1[nH]c2cc(C3CCCCC3)nn2c2ccccc12`, for which the IC50 came out at 200 nM.
For `Cc1ccc(-c2cc3[nH]c(=O)c4ccccc4n3n2)cc1`, the half-inhibitory concentration (IC50) was determined as 500 nM. Compared with the last compound, the IC50 is about 2.5-fold higher.
Still for that read-out and setting: under `CN1CCC(CNC(=O)c2cc3[nH]c(=O)c4ccccc4n3n2)C1` (stereo not given) stands 80 nM; under `N#Cc1ccc(-c2cc3[nH]c(=O)c4ccccc4n3n2)cc1`, above 1000 nM; under `CN(C)CCN(C)C(=O)c1cc2[nH]c(=O)c3ccccc3n2n1`, 100 nM.
On to `O=c1[nH]c2cc(-c3cccc(Cl)c3)nn2c2ccccc12`, for which the IC50 was 500 nM.
Same read-out and setting: for `O=c1[nH]c2cc(-c3cccc(Br)c3)nn2c2ccccc12` the value was 600 nM.
`O=C(NCCCN1CCOCC1)c1cc2[nH]c(=O)c3ccccc3n2n1` had a concentration for half-maximal inhibition (IC50) of 140 nM.
On the same count and under the same terms, under `O=c1[nH]c2cc(-c3cccs3)nn2c2ccccc12` stands 150 nM; under `O=c1[nH]c2cc(-c3ccco3)nn2c2ccccc12`, 200 nM.
Still for that read-out and setting: for `Cc1cc2[nH]c(=O)c3ccccc3n2n1` the value was 300 nM.
`CN1CCCN(C(=O)c2cc3[nH]c(=O)c4ccccc4n3n2)CC1` gave an IC50 of 10 nM.
Consider `COc1cccc(-c2cc3[nH]c(=O)c4ccccc4n3n2)c1OC`, for which half-maximal inhibition (IC50) was put at 100 nM.
Same read-out and setting: under `CN(C)CCN(C)C(=O)c1cccc(-c2cc3[nH]c(=O)c4ccccc4n3n2)c1` stands 800 nM; under `CN1CCN(C(=O)c2cnn3c2[nH]c(=O)c2ccccc23)CC1`, above 1000 nM.
The same measure, in the same setting: under `CN1CCN(C(=O)c2ccc(-c3cc4[nH]c(=O)c5ccccc5n4n3)cc2)CC1` stands 1400 nM.
Still for that read-out and setting: for `CCc1ccc(-c2cc3[nH]c(=O)c4ccccc4n3n2)cc1` the value was 500 nM; for `O=c1[nH]c2cc(-c3ccc(Br)cc3)nn2c2ccccc12`, 700 nM; for `CN(C)CCN(C)C(=O)c1ccc(-c2cc3[nH]c(=O)c4ccccc4n3n2)cc1`, 1300 nM.
`O=C(c1cc2[nH]c(=O)c3ccccc3n2n1)N1CCCNCC1` yielded an IC50 of 30 nM.
For the compound `O=C(c1cc2[nH]c(=O)c3ccccc3n2n1)N1CCC(CN2CCOCC2)CC1`, 1100 nM corresponded to half-maximal inhibition (IC50).
The same measure, in the same setting: for `O=C(NCCC1(N2CCOCC2)CCCC1)c1cc2[nH]c(=O)c3ccccc3n2n1` the value was 90 nM; for `O=C(c1cnn2c1[nH]c(=O)c1ccccc12)N1CCCNCC1`, above 1000 nM; for `CN1CCN(C(=O)c2cc3[nH]c(=O)c4ccccc4n3n2)CC1`, 300 nM.
Same read-out and setting: under `COc1ccc(-c2cc3[nH]c(=O)c4ccccc4n3n2)c(OC)c1` stands 200 nM; under `CN1CCN(C(=O)c2cccc(-c3cc4[nH]c(=O)c5ccccc5n4n3)c2)CC1`, 1000 nM; under `CN1CCC(CNC(=O)c2cc3[nH]c(=O)c4ccccc4n3n2)CC1`, 70 nM.
Same read-out and setting: for `O=c1[nH]c2cc(-c3ccc(F)cc3)nn2c2ccccc12` the value was above 1000 nM; for `O=C(NCCN1CCOCC1)c1cnn2c1[nH]c(=O)c1ccccc12`, above 1000 nM; for `COc1cc(-c2cc3[nH]c(=O)c4ccccc4n3n2)cc(OC)c1OC`, 30 nM.
For `O=C(c1cc2[nH]c(=O)c3ccccc3n2n1)N1CCN(CC2CC2)CC1`, the concentration for half-maximal inhibition (IC50) was 300 nM.
The compound `CCCc1ccc(-c2cc3[nH]c(=O)c4ccccc4n3n2)cc1` had a half-maximal inhibitory concentration (IC50) above 1000 nM.
The same measure, in the same setting: for `O=C(c1ccc(-c2cc3[nH]c(=O)c4ccccc4n3n2)cc1)N1CCN2CCC[C@H]2C1` the value was 2500 nM; for `O=C(c1cc2[nH]c(=O)c3ccccc3n2n1)N1CCN2CCC[C@H]2C1`, 600 nM.
Still for that read-out and setting: under `COc1ccc(-c2cc3[nH]c(=O)c4ccccc4n3n2)cc1OC` stands 200 nM.
On the same count and under the same terms, for `O=C(NCCN1CCOCC1)c1cc2[nH]c(=O)c3ccccc3n2n1` the value was 140 nM; for `O=c1[nH]c2cc(-c3ccc(Cl)cc3)nn2c2ccccc12`, 500 nM; for `O=c1[nH]c2cc(-c3cccc(F)c3)nn2c2ccccc12`, above 1000 nM.
The compound `CC(C)(C)c1ccc(-c2cc3[nH]c(=O)c4ccccc4n3n2)cc1` had an IC50 above 1000 nM.
In turn, `O=c1[nH]c2cc(-c3ccccc3)nn2c2ccccc12` returned an IC50 of 100 nM. In other words, the sub-micromolar range.
